From patent publication US20240067632A1, “WEE1 Degrading Compounds and Uses Thereof” (Bristol-Myers Squibb Company, priority 2022, published 2024) come the findings set out here.

Read-outs that look alike come from different tables or passages of the source.

One test deals with T1, WEE1 (Homo sapiens, UniProt P30291+Q96SW2).
T1 construct: C-terminal ePL-tagged (DiscoverX, Fremont, CA) full-length WEE1 expression construct; expressed in transfected cells; host or cells: LentiX-HEK293T (Invitrogen), lentiviral transduction; co-expressing GSPT1-GN (G576N, lacking the first 158 amino acids)
Description: WEE1-ePL degradation assay (LentiX-WEE1-ePL-GSPT1-ND cells, InCELL Hunter luminescence, 4 h). In kind it is cell-based. The settings on record: 293T-LentiX WEE1-ePL cells; for DC50: read-out: 293T-LentiX WEE1-ePL Degradation 4 hr (EC50). The procedure, abridged: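 LentiX-HEK293T cells stably expressing C-terminally ePL-tagged full-length WEE1 were treated with compounds in a 10-point, 3-fold dilution series starting at 1 uM or 10 uM for 4 h at 37 °C. Remaining WEE1-ePL was detected by InCELL Hunter luminescence, and EC50, Ymin and Ymax came from a four-parameter logistic fit against DMSO control.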

The test system of the next test is MKN45 cells. Put plainly: MKN45 cell proliferation assay (Cell-Titer-Glo, 120 h). In kind it is cell-based. The settings on record: for EC50: Homo sapiens, MKN-45, 120 h, Cell-Titer-Glo, read-out: MKN45 Cell Prolif. 120 hr (EC50); for MKN45 Cell Prolif. 120 hr (Ymin-Obs): minimal percent of DMSO control observed in the concentrations tested. The procedure, abridged: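 Cells seeded at 400/well onto pre-printed 10-point half-log dilutions (top 1 or 10 uM, 0.1% DMSO final), in triplicate, and grown 120 h at 37 C. Viability by Cell-Titer-Glo luminescence, blank-subtracted and normalised to DMSO; EC50 from four-parameter logistic fit, with observed minimal % of control recorded as Ymin-obs.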

The mark [1] stands for this setting: lower limit of the fit (0 = luciferase inhibitor, Ymax = DMSO control).
Setting [2] is: lower limit of the fit (Ymin=0 luciferase inhibitor, Ymax DMSO control).

As for `O=C1CCC(N2Cc3cc(O[C@H]4CCN(Cc5ccc6nc(N7CCC[C@]78CCOC8)ncc6c5)C4)ccc3C2=O)C(=O)N1` (stereo partly drawn) [3-(5-{[(3S)-1-({2-[(5R)-7-oxa-1-azaspiro[4.4]nonan-1-yl]quinazolin-6-yl}methyl)pyrrolidin-3-yl]oxy}-1-oxo-2,3-dihydro-1H-isoindol-2-yl)piperidine-2,6-dione], the “293T-LentiX WEE1-ePL Degradation 4 hr (Ymin)” value on WEE1 (setting [1]) is reported as 32.5. At WEE1, the DC50 worked out at 12.3 nM. The EC50 in the test on MKN45 cells (growth inhibition) is 6.61 nM. The “MKN45 Cell Prolif. 120 hr (Ymin-Obs)” value in the test on MKN45 cells amounted to 6.57.
The corresponding values for `O=C1CCC(N2Cc3cc(O[C@H]4CCN(Cc5ccc6nc(N7[C@@H]8CC[C@H]7COC8)ncc6c5)C4)ccc3C2=O)C(=O)N1` (stereo partly drawn) [3-(5-{[(3S)-1-({2-[(1R,5S)-3-oxa-8-azabicyclo[3.2.1]octan-8-yl]quinazolin-6-yl}methyl)pyrrolidin-3-yl]oxy}-1-oxo-2,3-dihydro-1H-isoindol-2-yl)piperidine-2,6-dione] are 33, 101 nM, 24.9 nM and 8.88.
As to `CO[C@@H]1CCN(c2ccc3cc(CN4CC[C@H](Oc5ccc6c(c5)CN(C5CCC(=O)NC5=O)C6=O)C4)ccc3n2)C1` (stereo partly drawn) [3-(5-{[(3S)-1-({2-[(3R)-3-methoxypyrrolidin-1-yl]quinolin-6-yl}methyl)pyrrolidin-3-yl]oxy}-1-oxo-2,3-dihydro-1H-isoindol-2-yl)piperidine-2,6-dione], the “293T-LentiX WEE1-ePL Degradation 4 hr (Ymin)” value at WEE1 (setting [1]) is listed as 37. Besides, the DC50 at WEE1 turned out to be 2.46 nM. In the test on MKN45 cells (growth inhibition), the EC50 came to 3.67 nM. For the same molecule, the “MKN45 Cell Prolif. 120 hr (Ymin-Obs)” value with MKN45 cells turned out to be 8.99.
For `CO[C@H]1CCN(c2ccc3cc(CN4CC[C@H](Oc5ccc6c(c5)CN(C5CCC(=O)NC5=O)C6=O)C4)ccc3n2)C1` (stereo partly drawn) [3-(5-{[(3S)-1-({2-[(3S)-3-methoxypyrrolidin-1-yl]quinolin-6-yl}methyl)pyrrolidin-3-yl]oxy}-1-oxo-2,3-dihydro-1H-isoindol-2-yl)piperidine-2,6-dione], the “293T-LentiX WEE1-ePL Degradation 4 hr (Ymin)” value at WEE1 (setting [1]) is 34. The DC50 at WEE1 stood at 3.58 nM. Moreover, the EC50 in the test on MKN45 cells (growth inhibition) worked out at 1.58 nM. In addition, in the test with MKN45 cells, the “MKN45 Cell Prolif. 120 hr (Ymin-Obs)” value stood at 9.12.
The corresponding values for `O=C1CCC(N2Cc3cc(O[C@H]4CCN(Cc5ccc6nc(N7C[C@@H]8C9CCC(O9)[C@@H]8C7)ccc6c5)C4)ccc3C2=O)C(=O)N1` (some centres unmarked) are 38, 3.19 nM, 3.83 nM and 10.93.
For `COCc1cnc2ccc(CN3CC[C@H](Oc4ccc5c(c4)CN(C4CCC(=O)NC4=O)C5=O)C3)cc2c1` (stereo partly drawn) [3-(5-{[(3S)-1-{[3-(methoxymethyl)quinolin-6-yl]methyl}pyrrolidin-3-yl]oxy}-1-oxo-2,3-dihydro-1H-isoindol-2-yl)piperidine-2,6-dione], the “293T-LentiX WEE1-ePL Degradation 4 hr (Ymin)” value on WEE1 (setting [1]) was found to be 33. The DC50 at WEE1 was found to be 4.28 nM. For the same molecule, the EC50 in the test with MKN45 cells (growth inhibition) is 11.1 nM. Besides, the “MKN45 Cell Prolif. 120 hr (Ymin-Obs)” value in the test with MKN45 cells is on record as 7.64.
The corresponding values for `CN(C)c1ccc2cc(CN3CC[C@H](Oc4ccc5c(c4)CN(C4CCC(=O)NC4=O)C5=O)C3)ccc2n1` (stereo partly drawn) [3-(5-{[(3S)-1-{[2-(dimethylamino)quinolin-6-yl]methyl}pyrrolidin-3-yl]oxy}-1-oxo-2,3-dihydro-1H-isoindol-2-yl)piperidine-2,6-dione] are 26.59, 2.71 nM, 20 nM and 12.34.
In the case of `CC(C)(O)c1ccc2cc(CN3CC[C@H](Oc4ccc5c(c4)CN(C4CCC(=O)NC4=O)C5=O)C3)ccc2n1` (stereo partly drawn) [3-(5-{[(3S)-1-{[2-(2-hydroxypropan-2-yl)quinolin-6-yl]methyl}pyrrolidin-3-yl]oxy}-1-oxo-2,3-dihydro-1H-isoindol-2-yl)piperidine-2,6-dione], the “293T-LentiX WEE1-ePL Degradation 4 hr (Ymin)” value at WEE1 (setting [1]) came out at 32.75. The DC50 at WEE1 was 4.09 nM. In addition, in the test with MKN45 cells (growth inhibition), the EC50 was found to be 14.1 nM. The “MKN45 Cell Prolif. 120 hr (Ymin-Obs)” value in the test with MKN45 cells is 11.2475.
Taken in the same sequence, the figures for `O=C1CCC(N2Cc3cc(O[C@H]4CCN(Cc5ccc6nc(N7C[C@H]8C[C@@H]7CO8)ncc6c5)C4)ccc3C2=O)C(=O)N1` (stereo partly drawn) [3-(5-{[(3S)-1-({2-[(1R,4R)-2-oxa-5-azabicyclo[2.2.1]heptan-5-yl]quinazolin-6-yl}methyl)pyrrolidin-3-yl]oxy}-1-oxo-2,3-dihydro-1H-isoindol-2-yl)piperidine-2,6-dione] were 39, 80.1 nM, 76.6 nM and 16.57.
On to `O=C1CC[C@H](N2Cc3cc(O[C@H]4CCN(Cc5cc(F)c6nc([C@H]7CCOC7)ccc6c5)C4)ccc3C2=O)C(=O)N1` [(3S)-3-(5-{[(3S)-1-({8-fluoro-2-[(3R)-oxolan-3-yl]quinolin-6-yl}methyl)pyrrolidin-3-yl]oxy}-1-oxo-2,3-dihydro-1H-isoindol-2-yl)piperidine-2,6-dione], for which, on WEE1 (setting [2]), the “293T-LentiX WEE1-ePL Degradation 4 hr (Ymin)” value is 34.39. Besides, the DC50 on WEE1 was 1.34 nM. Besides, in the test with MKN45 cells, the EC50 worked out at 1.02 nM and the “MKN45 Cell Prolif. 120 hr (Ymin-Obs)” value came out at 9.528.
As to `CC1(C)C[C@H](c2ncc3cc(CN4CC[C@H](Oc5ccc6c(c5)CN(C5CCC(=O)NC5=O)C6=O)C4)ccc3n2)CCO1` (stereo partly drawn) [3-(5-{[(3S)-1-({2-[(4R)-2,2-dimethyloxan-4-yl]quinazolin-6-yl}methyl)pyrrolidin-3-yl]oxy}-1-oxo-2,3-dihydro-1H-isoindol-2-yl)piperidine-2,6-dione], the “293T-LentiX WEE1-ePL Degradation 4 hr (Ymin)” value on WEE1 (setting [1]) amounted to 27. Moreover, on WEE1, the DC50 was determined as 65 nM. Besides, the EC50 in the test on MKN45 cells (growth inhibition) stood at 19.7 nM. Also, the “MKN45 Cell Prolif. 120 hr (Ymin-Obs)” value in the test with MKN45 cells is 9.866.
As for `O=C1CCC(N2Cc3cc(O[C@H]4CCN(Cc5ccc6nc(N7CC8(CCOCC8)C7)ccc6c5)C4)ccc3C2=O)C(=O)N1` (stereo partly drawn) [3-(5-{[(3S)-1-[(2-{7-oxa-2-azaspiro[3.5]nonan-2-yl}quinolin-6-yl)methyl]pyrrolidin-3-yl]oxy}-1-oxo-2,3-dihydro-1H-isoindol-2-yl)piperidine-2,6-dione], the “293T-LentiX WEE1-ePL Degradation 4 hr (Ymin)” value on WEE1 (setting [1]) is 36. Also, the DC50 at WEE1 turned out to be 1.94 nM. Moreover, the EC50 in the test with MKN45 cells (growth inhibition) is 2.84 nM. Also, the “MKN45 Cell Prolif. 120 hr (Ymin-Obs)” value with MKN45 cells is reported as 10.13.
In the case of `CNc1cnc2ccc(CN3CC[C@H](Oc4ccc5c(c4)CN(C4CCC(=O)NC4=O)C5=O)C3)cc2c1` (stereo partly drawn) [3-(5-{[(3S)-1-{[3-(methylamino)quinolin-6-yl]methyl}pyrrolidin-3-yl]oxy}-1-oxo-2,3-dihydro-1H-isoindol-2-yl)piperidine-2,6-dione], on WEE1 (setting [1]), the “293T-LentiX WEE1-ePL Degradation 4 hr (Ymin)” value is 34. Further, the DC50 on WEE1 worked out at 18.1 nM. Besides, the EC50 with MKN45 cells (growth inhibition) stood at 204 nM. Further, the “MKN45 Cell Prolif. 120 hr (Ymin-Obs)” value with MKN45 cells turned out to be 16.86.
In the case of `O=C1CCC(N2Cc3cc(O[C@@H]4CN(Cc5ccc6nc(C7CCOCC7)ccc6c5)C[C@H]4C(F)(F)F)ccc3C2=O)C(=O)N1` (stereo partly drawn) [3-(5-{[(3S,4R)-1-{[2-(oxan-4-yl)quinolin-6-yl]methyl}-4-(trifluoromethyl)pyrrolidin-3-yl]oxy}-1-oxo-2,3-dihydro-1H-isoindol-2-yl)piperidine-2,6-dione], the “293T-LentiX WEE1-ePL Degradation 4 hr (Ymin)” value at WEE1 (setting [2]) amounted to 35.15. The DC50 at WEE1 was found to be 13.1 nM. In the test with MKN45 cells, the EC50 came to 26.8 nM and the “MKN45 Cell Prolif. 120 hr (Ymin-Obs)” value is given as 28.55.
Regarding `Cc1cnc2ccc(CN3CC[C@H](Oc4ccc5c(c4)CN(C4CCC(=O)NC4=O)C5=O)C3)cc2c1` (stereo partly drawn) [3-(5-{[(3S)-1-[(3-methylquinolin-6-yl)methyl]pyrrolidin-3-yl]oxy}-1-oxo-2,3-dihydro-1H-isoindol-2-yl)piperidine-2,6-dione], the “293T-LentiX WEE1-ePL Degradation 4 hr (Ymin)” value on WEE1 (setting [1]) came out at 38.21. The DC50 at WEE1 is 4.47 nM. Further, in the test on MKN45 cells (growth inhibition), the EC50 was 63.5 nM. Further, in the test with MKN45 cells, the “MKN45 Cell Prolif. 120 hr (Ymin-Obs)” value is 21.51.
As for `C[C@@H]1CN(Cc2ccc3nc([C@H]4CCOC(C)(C)C4)ccc3c2)C[C@H]1Oc1ccc2c(c1)CN([C@H]1CCC(=O)NC1=O)C2=O` [(3S)-3-(5-{[(3S,4R)-1-({2-[(4S)-2,2-dimethyloxan-4-yl]quinolin-6-yl}methyl)-4-methylpyrrolidin-3-yl]oxy}-1-oxo-2,3-dihydro-1H-isoindol-2-yl)piperidine-2,6-dione], the “293T-LentiX WEE1-ePL Degradation 4 hr (Ymin)” value on WEE1 (setting [2]) is given as 24.63. Besides, on WEE1, the DC50 came out at 3.51 nM. Besides, in the test with MKN45 cells, the EC50 was determined as 1.44 nM and the “MKN45 Cell Prolif. 120 hr (Ymin-Obs)” value is recorded as 9.434.
On to `O=C1CCC(N2Cc3cc(O[C@H]4CCN(Cc5ccc6nc(OC7CCOCC7)ccc6c5)C4)ccc3C2=O)C(=O)N1` (stereo partly drawn) [3-(5-{[(3S)-1-{[2-(oxan-4-yloxy)quinolin-6-yl]methyl}pyrrolidin-3-yl]oxy}-1-oxo-2,3-dihydro-1H-isoindol-2-yl)piperidine-2,6-dione], for which the “293T-LentiX WEE1-ePL Degradation 4 hr (Ymin)” value on WEE1 (setting [1]) worked out at 33. For the same molecule, the DC50 at WEE1 turned out to be 4.52 nM. Also, the EC50 in the test on MKN45 cells (growth inhibition) stood at 9.83 nM. Besides, the “MKN45 Cell Prolif. 120 hr (Ymin-Obs)” value with MKN45 cells is 13.54.
